2 substances from patent US11583572B2, “Encapsulation of ultra-stable insulin analogues with polymer melts” (CASE WESTERN RESERVE UNIVERSITY, priority 2015, dated 2023) can be followed below.

For series [1], the target named is A isoform of the insulin receptor (Homo sapiens, UniProt P06213).
Series [2] can be described thus: Elution of protein from PLGA polymer cylinders in phosphate-buffered saline (Bradford assay calibrated by ELISA). The series is classed as physicochemical. The settings on record: 5% PEG, PBS pH 7.4, 37° C. The procedure:
FIG. 4 is a graph showing elution of ultra-stable single-chain analogue (SCI) from PLGA polymer (50-50%) in phosphate-buffered saline (pH 7.4 and 37° C.). Horizontal axis denotes soaking time. Vertical axis denotes nanograms of insulin analogue (dark gray triangles) or relative Bradford-active material in control polymers containing hen egg white lysozyme (light gray squares) or no protein (dark gray diamonds). The latter represents background signal in the Bradford assay due to non-protein material. Horizontal plateau at days 10-15 represents no further elution of protein from the polymers. Samples were made with 5% PEG (mean molecular mass 8 kDa) to optimize the near-linear rate of SCI elution between 1-10 days. Immediate burst release of a portion of the material is not shown.
Elution of insulin analogue protein from a polymer melt in phosphate buffered saline (PBS) at pH 7.4 was also examined. Test cylindrical polymers were prepared with 50%-50% PLGA containing 25% weight/weight of a single-chain insulin (SCI) analogue stabilized by a fourth disulfide bridge between residues B4 and A10. […]
The cumulative amounts of protein released are also provided below in Table 1. In this table the micrograms of insulin corresponding to the Bradford assay was verified by ELISA whereas the readings for lysozyme are uncalibrated by an independent assay.

Bridges are numbered along the chain shown (N, C = ends). Where no end group is shown, it is not given here.

Chain of A isoform of the insulin receptor (P06213 28-746 isoform P06213-2 limits assumed): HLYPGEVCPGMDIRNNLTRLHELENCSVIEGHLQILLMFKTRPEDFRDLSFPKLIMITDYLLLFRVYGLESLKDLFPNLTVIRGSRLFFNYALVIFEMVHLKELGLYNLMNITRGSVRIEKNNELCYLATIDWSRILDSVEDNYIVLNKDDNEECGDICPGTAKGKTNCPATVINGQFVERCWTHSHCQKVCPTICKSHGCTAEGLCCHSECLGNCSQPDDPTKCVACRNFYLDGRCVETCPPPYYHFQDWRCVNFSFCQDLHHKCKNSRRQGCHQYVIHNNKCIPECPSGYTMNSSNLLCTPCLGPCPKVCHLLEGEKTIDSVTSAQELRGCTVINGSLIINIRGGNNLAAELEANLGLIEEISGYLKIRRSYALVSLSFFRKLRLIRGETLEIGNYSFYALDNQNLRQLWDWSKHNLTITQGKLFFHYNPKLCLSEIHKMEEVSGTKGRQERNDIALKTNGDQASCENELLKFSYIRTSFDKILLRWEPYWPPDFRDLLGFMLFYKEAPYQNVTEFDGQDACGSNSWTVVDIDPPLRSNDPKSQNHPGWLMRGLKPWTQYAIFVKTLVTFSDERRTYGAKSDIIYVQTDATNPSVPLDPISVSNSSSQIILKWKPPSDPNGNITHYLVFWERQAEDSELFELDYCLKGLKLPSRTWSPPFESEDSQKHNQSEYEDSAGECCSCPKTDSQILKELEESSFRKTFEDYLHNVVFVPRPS
Chain of A isoform of the insulin receptor (P06213 763-1382 partner limits assumed): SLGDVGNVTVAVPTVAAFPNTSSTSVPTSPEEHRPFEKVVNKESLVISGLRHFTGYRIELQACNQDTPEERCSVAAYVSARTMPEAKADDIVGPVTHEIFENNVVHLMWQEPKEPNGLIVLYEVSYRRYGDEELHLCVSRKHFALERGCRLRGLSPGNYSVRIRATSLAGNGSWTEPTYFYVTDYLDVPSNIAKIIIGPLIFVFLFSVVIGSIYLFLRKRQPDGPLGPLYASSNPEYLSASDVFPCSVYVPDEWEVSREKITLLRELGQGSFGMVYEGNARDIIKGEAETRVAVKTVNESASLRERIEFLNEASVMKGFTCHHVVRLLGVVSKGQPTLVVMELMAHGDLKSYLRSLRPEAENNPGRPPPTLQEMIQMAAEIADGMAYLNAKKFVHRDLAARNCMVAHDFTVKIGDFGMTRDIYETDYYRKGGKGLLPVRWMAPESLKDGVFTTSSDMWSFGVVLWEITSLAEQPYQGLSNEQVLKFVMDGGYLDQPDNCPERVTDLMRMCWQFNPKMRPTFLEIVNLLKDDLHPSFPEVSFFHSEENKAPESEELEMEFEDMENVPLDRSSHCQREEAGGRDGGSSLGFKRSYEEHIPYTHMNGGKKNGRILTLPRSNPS

Consider “FVNCHLCGSHLVEALYLVCGERGFFYTDPTEEGPRRGIVEQCCHSCCSLEQLENYCN (disulfide 4-46, 7-43, 19-56, 42-47) [4SS 81-04]”, for which the “affinity for the A isoform of the insulin receptor relative to human insulin” value in series [1] is listed as 120±20%. “hen egg-white lysozyme: control protein in analogous co-polymer instead of an insulin analogue”: the “protein release from PLGA polymer during days 10-15” value in series [2] is “no further release”.
